Experimental data published in patent US20180256673A1, “METHODS FOR TREATING FUNGAL INFECTIONS” (priority 2015, published 2018).
≈ marks a conversion by molar mass, not a printed value. Starred links: 1 amine or outer side, 2 acyl side, 3 side chain; linkers in the order of their positions; H or OH if unused. Positions of bridges follow the written chain, without caps; N, C: chain ends. Non-standard residues stand in square brackets, D forms with d. Residues, ends and D or L forms follow the SMILES beside them. *: point of attachment. hTyr(3S-OH,4S-OH,3'-OSO3H) = N[C@H](C(=O)O)[C@H](O)[C@@H](O)c1ccc(O)c(OS(=O)(=O)O)c1; Orn(4R-OH,5R-OH) = O=C([C@H](C[C@@H](O)[C@@H](O)N[*:3])N[*:1])[*:2]; Pro(3S-OH,4S-Me) = C[C@H]1CN[C@H](C(=O)O)[C@H]1O; X1 = CCCCCOc1ccc(-c2cc(-c3ccc(C(=O)*)cc3)no2)cc1; Gln(3R-OH) = NC(=O)C[C@@H](O)[C@H](N)C(=O)O; Hyp = O=C(O)[C@@H]1C[C@@H](O)CN1

Key:
[1] = tested on: C. albicans vaginal isolates; test: Susceptibility testing of VVC clinical isolates at pH 7 and 4 (CLSI M27-A3); type: cell-based, Candida albicans; conditions: Candida albicans
[2] = tested on: C. tropicalis vaginal isolates; test: as above; type: cell-based; conditions: Candida tropicalis
Candida albicans = test: Broth microdilution of invasive fungal isolates (CLSI M27-A3/M38-A2); type: cell-based
Candida krusei = test: as above; type: cell-based
Candida dubliniensis = test: as above; type: cell-based
Candida orthopsilosis = test: as above; type: cell-based
[3] = tested on: Cryptococcus neoformans var. grubii; test: as above; type: cell-based
Aspergillus fumigatus = test: Broth microdilution of invasive fungal isolates (CLSI M27-A3/M38-A2), MEC; type: cell-based; conditions: 56 isolates

Structure (SMILES): CCCCCOc1ccc(-c2cc(-c3ccc(C(=O)N[C@H]4C[C@@H](O)[C@@H](O)NC(=O)[C@@H]5[C@@H](O)[C@@H](C)CN5C(=O)[C@H]([C@H](O)CC(N)=O)NC(=O)[C@H]([C@H](O)[C@@H](O)c5ccc(O)c(OS(=O)(=O)O)c5)NC(=O)[C@@H]5C[C@@H](O)CN5C(=O)[C@H]([C@@H](C)O)NC4=O)cc3)no2)cc1 [MCF, micafungin] (X1-[Orn(4R-OH,5R-OH)]T[Hyp][hTyr(3S-OH,4S-OH,3'-OSO3H)][Gln(3R-OH)][Pro(3S-OH,4S-Me)]; lactam 1-C)
- MIC90 ([1]; 24 h, pH 4): 0.125 µg/mL (≈ 0.0984 µM)
- MIC90 ([1]; 24 h, pH 7): 0.008 µg/mL (≈ 0.0063 µM)
- MIC90 ([1]; 48 h, pH 4): 0.25 µg/mL (≈ 0.197 µM)
- MIC ([1]; 48 h, pH 4, fluconazole-resistant isolate 1, pH 4): 0.016 µg/mL (≈ 0.0126 µM)
- MIC ([1]; 48 h, pH 4, fluconazole-resistant isolate 2, pH 4): 0.016 µg/mL (≈ 0.0126 µM)
- MIC ([1]; 48 h, pH 4, fluconazole-resistant isolate 3, pH 4): 0.016 µg/mL (≈ 0.0126 µM)
- MIC ([1]; 48 h, pH 4, fluconazole-resistant isolate 4, pH 4): 0.03 µg/mL (≈ 0.0236 µM)
- MIC ([1]; 48 h, pH 4, fluconazole-resistant isolate 5, pH 4): 0.016 µg/mL (≈ 0.0126 µM)
- MIC ([1]; 48 h, pH 4, fluconazole-resistant isolate 6, pH 4): 0.03 µg/mL (≈ 0.0236 µM)
- MIC ([1]; 48 h, pH 4, fluconazole-resistant isolate 7, pH 4): 0.25 µg/mL (≈ 0.197 µM)
- MIC ([1]; 48 h, pH 4, fluconazole-resistant isolate 8, pH 4): 0.06 µg/mL (≈ 0.0472 µM)
- MIC ([1]; 48 h, pH 4, fluconazole-resistant isolate 9, pH 4): 0.125 µg/mL (≈ 0.0984 µM)
- MIC ([1]; 48 h, pH 4, fluconazole-resistant isolate 10, pH 4): 0.06 µg/mL (≈ 0.0472 µM)
- MIC90 ([1]; 48 h, pH 7): 0.03 µg/mL (≈ 0.0236 µM)
- MIC ([1]; 48 h, pH 7, fluconazole-resistant isolate 1, pH 7): 0.008 µg/mL (≈ 0.0063 µM)
- MIC ([1]; 48 h, pH 7, fluconazole-resistant isolate 2, pH 7): 0.016 µg/mL (≈ 0.0126 µM)
- MIC ([1]; 48 h, pH 7, fluconazole-resistant isolate 3, pH 7): 0.008 µg/mL (≈ 0.0063 µM)
- MIC ([1]; 48 h, pH 7, fluconazole-resistant isolate 4, pH 7): 0.008 µg/mL (≈ 0.0063 µM)
- MIC ([1]; 48 h, pH 7, fluconazole-resistant isolate 5, pH 7): 0.06 µg/mL (≈ 0.0472 µM)
- MIC ([1]; 48 h, pH 7, fluconazole-resistant isolate 6, pH 7): 0.008 µg/mL (≈ 0.0063 µM)
- MIC ([1]; 48 h, pH 7, fluconazole-resistant isolate 7, pH 7): 0.06 µg/mL (≈ 0.0472 µM)
- MIC ([1]; 48 h, pH 7, fluconazole-resistant isolate 8, pH 7): 0.008 µg/mL (≈ 0.0063 µM)
- MIC ([1]; 48 h, pH 7, fluconazole-resistant isolate 9, pH 7): 0.06 µg/mL (≈ 0.0472 µM)
- MIC ([1]; 48 h, pH 7, fluconazole-resistant isolate 10, pH 7): 0.008 µg/mL (≈ 0.0063 µM)
- MIC90 ([2]; 24 h, pH 4): 0.06 µg/mL (≈ 0.0472 µM)
- MIC90 ([2]; 24 h, pH 7): 0.016 µg/mL (≈ 0.0126 µM)
- MIC90 ([2]; 48 h, pH 4): 0.06 µg/mL (≈ 0.0472 µM)
- MIC90 ([2]; 48 h, pH 7): 0.03 µg/mL (≈ 0.0236 µM)
- Cumulative % of isolates inhibited at MIC 0.015 μg/mL (Candida albicans; 251 isolates): (74.9) %
- Cumulative % of isolates inhibited at MIC 0.03 μg/mL (Candida albicans; 251 isolates): (100.0) %
- Cumulative % of isolates inhibited at MIC ≤0.008 μg/mL (Candida albicans; 251 isolates): (6.8) %
- Number of isolates inhibited at MIC 0.015 μg/mL (Candida albicans; 251 isolates): 171
- Number of isolates inhibited at MIC 0.03 μg/mL (Candida albicans; 251 isolates): 63
- Number of isolates inhibited at MIC ≤0.008 μg/mL (Candida albicans; 251 isolates): 17
- MIC50 (Candida albicans; Candida albicans): 0.015 µg/mL (≈ 0.0118 µM)
- MIC90 (Candida albicans; Candida albicans): 0.03 µg/mL (≈ 0.0236 µM)
- Cumulative % of isolates inhibited at MIC 0.06 μg/mL (Candida krusei; 16 isolates): (50.0) %
- Cumulative % of isolates inhibited at MIC 0.12 μg/mL (Candida krusei; 16 isolates): (100.0) %
- Number of isolates inhibited at MIC 0.06 μg/mL (Candida krusei; 16 isolates): 8
- Number of isolates inhibited at MIC 0.12 μg/mL (Candida krusei; 16 isolates): 8
- MIC50 (Candida krusei; Pichia kudriavzevii): 0.06 µg/mL (≈ 0.0472 µM)
- MIC90 (Candida krusei; Pichia kudriavzevii): 0.12 µg/mL (≈ 0.0945 µM)
- Cumulative % of isolates inhibited at MIC 0.015 μg/mL (Candida dubliniensis; 11 isolates): (27.3) %
- Cumulative % of isolates inhibited at MIC 0.03 μg/mL (Candida dubliniensis; 11 isolates): (100.0) %
- Number of isolates inhibited at MIC 0.015 μg/mL (Candida dubliniensis; 11 isolates): 3
- Number of isolates inhibited at MIC 0.03 μg/mL (Candida dubliniensis; 11 isolates): 8
- MIC50 (Candida dubliniensis; Candida dubliniensis): 0.03 µg/mL (≈ 0.0236 µM)
- MIC90 (Candida dubliniensis; Candida dubliniensis): 0.03 µg/mL (≈ 0.0236 µM)
- Cumulative % of isolates inhibited at MIC 0.12 μg/mL (Candida orthopsilosis; 10 isolates): (20.0) %
- Cumulative % of isolates inhibited at MIC 0.25 μg/mL (Candida orthopsilosis; 10 isolates): (40.0) %
- Cumulative % of isolates inhibited at MIC 0.5 μg/mL (Candida orthopsilosis; 10 isolates): (70.0) %
- Cumulative % of isolates inhibited at MIC 1 μg/mL (Candida orthopsilosis; 10 isolates): (100.0) %
- Number of isolates inhibited at MIC 0.12 μg/mL (Candida orthopsilosis; 10 isolates): 2
- Number of isolates inhibited at MIC 0.25 μg/mL (Candida orthopsilosis; 10 isolates): 2
- Number of isolates inhibited at MIC 0.5 μg/mL (Candida orthopsilosis; 10 isolates): 3
- Number of isolates inhibited at MIC 1 μg/mL (Candida orthopsilosis; 10 isolates): 3
- MIC50 (Candida orthopsilosis; Lodderomyces orthopsilosis): 0.5 µg/mL (≈ 0.394 µM)
- MIC90 (Candida orthopsilosis; Lodderomyces orthopsilosis): 1 µg/mL (≈ 0.787 µM)
- Cumulative % of isolates inhibited at MIC >8 μg/mL ([3]; 19 isolates): (100.0) %
- Number of isolates inhibited at MIC >8 μg/mL ([3]; 19 isolates): 19
- MIC50 ([3]; Cryptococcus neoformans): 8 µg/mL (≈ 6.3 µM)
- MIC90 ([3]; Cryptococcus neoformans): 8 µg/mL (≈ 6.3 µM)
- Cumulative % of isolates inhibited at MEC 0.015 μg/mL (Aspergillus fumigatus): (96.4) %
- Cumulative % of isolates inhibited at MEC 0.03 μg/mL (Aspergillus fumigatus): (100.0) %
- Cumulative % of isolates inhibited at MEC ≤0.008 μg/mL (Aspergillus fumigatus): (28.6) %
- MEC50 (Aspergillus fumigatus): .015 µg/mL
- MEC90 (Aspergillus fumigatus): .015 µg/mL
- Number of isolates inhibited at MEC 0.015 μg/mL (Aspergillus fumigatus): 38
- Number of isolates inhibited at MEC 0.03 μg/mL (Aspergillus fumigatus): 2
- Number of isolates inhibited at MEC ≤0.008 μg/mL (Aspergillus fumigatus): 16
